From US9163003B2, “4-piperidinyl compounds for use as tankyrase inhibitors” (NOVARTIS AG, priority 2011, dated 2015)
Like-named read-outs stand apart in the source and are kept apart here.

How the values were obtained:
[1] = target: tankyrase 2 protein PARP domain, TNKS2P (GST-tagged) (Homo sapiens (Human), UniProt Q9H2K2); experiment: TNKS2 autoparsylation (AP) biochemical assay, LC/MS detection of nicotinamide; conditions: 20 nM enzyme, 250 μM NAD+, 60 min room temperature
[2] = target: human tankyrase 1 PARP catalytic domain, TNKS1P (GST-tagged) (Homo sapiens (Human), UniProt O95271); experiment: TNKS1 autoparsylation (AP) biochemical assay, LC/MS detection of nicotinamide; conditions: 20 nM enzyme, 250 μM NAD+, 60 min room temperature
Experimental: The human tankyrase 1 PARP catalytic domain, TNKS1P, was cloned into a pDONR221 vector using the Invitrogen Gateway Technology. This entry clone was then subcloned into the destination vector pDEST20 to obtain the N-terminal Glutathione S-transferase (GST)-tagged fusion protein.
The autoparsylation activity of the TNKS 1/2 or PARP1/2 enzymes was measured by the liquid chromatography-mass spectrometry (LC/MS) detection of nicotinamide as readout. Compound activity in inhibiting the TNKS and PARP autoparsylation was evaluated by IC50 measurements.

[3] = system: Wnt ligand-induced signaling; experiment: Wnt-responsive Super-TOpFlash (STF) luciferase reporter gene assay in HEK293 cells; format: cell-based; conditions: Wnt3A condition medium induced
Experimental: Compound activity in inhibiting Wnt ligand-induced signaling was measured using a Wnt-responsive Super-TOpFlash (STF) luciferase reporter gene assay in HEK293 cells. On day 1 of the assay, cells were plated at a density of 8000 cells per well of 384-well plate in 25 μl medium containing 5% fetal bovine serum (FBS). On the second day, […] condition medium (CM) produced from mouse L cells was added to the cells to induce Wnt signaling, followed by addition of 5 μL of compounds each well in 10-point serial dilution. On the third day, the luciferase activity was measured by the Bright-Glo™ Luciferase Assay System following manufacture's protocol (Promega, E2620). The Inhibition was calculated as: (Maximum Wnt-induced signaling−Sample)/(Maximum Wnt-induced signaling−Background)*100. “Maximum Wnt-induced signaling” is the STF signal level induced by 20% Wnt3A CM without compound; and “Background” is the STF signal level without the addition of Wnt3A CM or compound.

[4] = system: Non-small lung cancer ABC-1 cells; experiment: Cellular proliferation assay, ABC-1 cells (CellTiter-Glo); format: cell-based; conditions: 3 days of compound treatment
Experimental: Non-small lung cancer ABC-1 cells were plated at 5000 cells per well in 96-well plates and treated with 8 serial compound dilutions starting from 10 μM as the highest concentration. Viable cells were measured after 3 days of compound treatment using the CellTiter-Glo assay (Promega, G7570). Assay was performed following the manufacture protocol.

Axin2 protein = experiment: Cellular ELISA assay for stabilizing the Axin2 protein in SW480 cells; format: cell-based; conditions: 24 hrs treatment, read-out: Axin AC50
Experimental: Compound activity in stabilizing the Axin2 protein was measured by Sandwich Enzyme-Linked Immuosorbent (ELISA) assay in the colorectal cell line SW480. 30,000 SW480 cells were seeded per well in 96-well plate and incubated overnight prior to compound treatment. Cells were then treated with compounds in 6-point dilution starting at 10 μM for 24 hrs. Cells were then washed with 100 μL of cold Phosphate Buffer Saline (PBS), and lysed in 125 μl of cold 1× lysis buffer (Cell Signaling Technology, 9803) supplemented with Protease inhibitor (Roche, 11836170) and Phosphatase inhibitors (Sigma, P2850, P5726). For the ELISA assay, anti Axin-2 capture antibody (Strategic Diagnostics) antibody was diluted to a concentration of 1 μg/ml (1:1000) in Carbonate Coating buffer, pH 9.2 (Sigma, C3041-50CAP). 100μ of the diluted anti Axin-2 capture antibody per well was then used to coat the 96-well ELISA plate (Thermo Electron Corp., MicroLite 1 flat bottom plate #7571) overnight at 4° C. Plates were then washed three times with 300 μl/well of wash solution, PBST20 (PBS+0.05% Tween), and blocked with 300 μl/well 1% BSA/PBS (BSA, Millipore Probumin #82-045-1) for 1.5 hours at room temperature while shaking gently. After blocking, plates were then washed three times with 300 μl/well of wash solution. 100 μL of prepared SW480 cell lysate was then added to each well and incubated at room temperature for 2 hours while shaking gently. After washing, 100 μL of Biotinylated anti-Axin2 antibody (CST, 2151) was added to each well and incubated room temperature for 2 hours. 100 μL of Streptavidin-HRP (R&D systems, DY998) diluted 1:200 in 1% BSA/PBS was then added in each well and incubate for 30 mins at R/T in the dark. Signal was detected by Chemiluminescence (Pierce SuperSignal ELISA Femto #3704), and measured on PerkinElmer Wallac 1420 plate reader.

Chain of human tankyrase 1 PARP catalytic domain, TNKS1P (GST-tagged) (O95271 1112-1317): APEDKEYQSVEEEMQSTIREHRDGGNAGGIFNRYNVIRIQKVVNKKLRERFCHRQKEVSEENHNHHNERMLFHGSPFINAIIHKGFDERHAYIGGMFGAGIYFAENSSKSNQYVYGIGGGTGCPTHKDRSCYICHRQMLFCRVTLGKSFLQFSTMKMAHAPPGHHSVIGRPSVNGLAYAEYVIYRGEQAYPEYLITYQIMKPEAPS
Chain of tankyrase 2 protein PARP domain, TNKS2P (GST-tagged) (Q9H2K2 959-1164): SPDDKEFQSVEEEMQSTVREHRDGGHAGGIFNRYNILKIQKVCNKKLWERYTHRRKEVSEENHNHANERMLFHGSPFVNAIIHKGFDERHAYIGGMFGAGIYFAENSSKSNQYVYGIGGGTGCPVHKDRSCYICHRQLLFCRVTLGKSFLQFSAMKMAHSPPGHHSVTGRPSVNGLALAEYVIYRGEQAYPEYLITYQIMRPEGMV

Structure (SMILES) | IC50 [1] | IC50 [2] | IC50 ([3]; Homo sapiens) | IC50 ([4]; Homo sapiens, 72 h) | AC50 (Axin2 protein; Homo sapiens) | IC50 [4] | AC50 (Axin2 protein) | IC50 [3]
COc1ccc(C(=O)C2CCN(C3CCN(Cc4nccc(=O)[nH]4)C3=O)CC2)cc1 (stereo not shown) [Example 22, 2-{3-[4-(4-Methoxy-benzoyl)-piperidin-1-yl]-2-oxo-pyrrolidin-1-ylmethyl}-3H-pyrimidin-4-one] | 764 ± 56 nM | 1500 ± 120 nM | 390 ± 190 nM |  |  |  |  | 
COc1ccc(C(=O)C2CCN(C3CCN(Cc4ccc(Cl)c(C#N)c4)C3=O)CC2)cc1 (stereo not shown) [Example 5, 2-Chloro-5-((3-(4-(4-methoxybenzoyl)piperidin-1-yl)-2-oxopyrrolidin-1-yl)methyl)benzonitrile] | 15 ± 1 nM | 36 ± 1 nM | 17 ± 3 nM | 156 nM | 66 ± 1 nM |  |  | 
COc1ccc(C(=O)C2CCN([C@@H]3CCN(Cc4nc5c(c(=O)[nH]4)COCC5)C3=O)CC2)cc1C [Example 14, 2-{(R)-3-[4-(4-Methoxy-3-methyl-benzoyl)-piperidin-1-yl]-2-oxo-pyrrolidin-1-ylmethyl}-3,5,7,8-tetrahydro-pyrano[4,3-d]pyrimidin-4-one] | 206 ± 20 nM | 711 ± 20 nM | 31 ± 3 nM | 149 nM | 128 ± 130 nM |  |  | 
COc1ccc2c(c1)CC1(CCN([C@H]3CCN(Cc4nc5c(c(=O)[nH]4)COCC5)C3=O)CC1)C2=O [Example 16] |  | 12 ± 1 nM |  |  |  | 82 nM | 7 ± 1 nM | 1.7 ± 0.2 nM
COc1ccc(C(=O)C2CCN(C3CCCN(Cc4nc5c(c(=O)[nH]4)COCC5)C3=O)CC2)cc1 (stereo not shown) [Example 18, 2-[4-(4-Methoxy-benzoyl)-2′-oxo-[1,3′]bipiperidinyl-1′-ylmethyl]-3,5,7,8-tetrahydro-pyrano[4,3-d]pyrimidin-4-one] | 15 ± 1 nM | 46 ± 1 nM | 5.6 ± 0.7 nM | 99 nM | 51 ± 7 nM |  |  | 
COc1ccc(C(=O)C2CCN([C@@H]3CCN(Cc4nc5c(c(=O)[nH]4)COCC5)C3=O)CC2)cc1 [Example 4, 2-{(R)-3-[4-(4-Methoxy-benzoyl)-piperidin-1-yl]-2-oxo-pyrrolidin-1-ylmethyl}-3,5,7,8-tetrahydro-pyrano[4,3-d]pyrimidin-4-one] | 600 ± 330 nM | 1600 ± 1200 nM | 95 ± 11 nM | 1020 ± 340 nM | 310 ± 270 nM |  |  | 
O=C(c1ccc(F)cc1)C1CCN([C@@H]2CCN(Cc3nc4c(c(=O)[nH]3)COCC4)C2=O)CC1 [Example 12, 2-{(R)-3-[4-(4-Fluoro-benzoyl)-piperidin-1-yl]-2-oxo-pyrrolidin-1-ylmethyl}-3,5,7,8-tetrahydro-pyrano[4,3-d]pyrimidin-4-one] | 2120 ± 50 nM | 5340 ± 340 nM | 620 ± 90 nM | > 10000 nM | > 10000 nM |  |  | 
COc1ccc(C(=O)C2CCN([C@@H]3CCN(Cc4nc5ccccc(=O)c5[nH]4)C3=O)CC2)cc1C [Example 29, 2-{(R)-3-[4-(4-Methoxy-3-methyl-benzoyl)-piperidin-1-yl]-2-oxo-pyrrolidin-1-ylmethyl}-3H-cycloheptaimidazol-4-one] | 112 nM | 278 ± 50 nM | 14 ± 4 nM | 10 nM | 9 ± 1 nM |  |  | 
COc1ccc(C(=O)C2CCN(C3CCN(CC(=O)Nc4noc5ncccc45)C3=O)CC2)cc1 (stereo not shown) [Example 38, N-(isoxazolo[5,4-b]pyridin-3-yl)-2-(3-(4-(4-methoxybenzoyl)piperidin-1-yl)-2-oxopyrrolidin-1-yl)acetamide] | 4560 ± 40 nM | 6500 ± 800 nM | 2030 ± 180 nM | 7900 nM |  |  |  | 
COc1ccc(C(=O)C2CCN(C3CCN(CC(=O)Nc4nnc5ccccn45)C3=O)CC2)cc1 (stereo not shown) [Example 35, N-([1,2,4]triazolo[4,3-a]pyridin-3-yl)-2-(3-(4-(4-methoxybenzoyl)piperidin-1-yl)-2-oxopyrrolidin-1-yl)acetamide] | 636 ± 36 nM | 2470 ± 30 nM | 940 ± 70 nM | 2630 nM | 1890 ± 160 nM |  |  | 
COc1ccc(C(=O)C2CCN(C3CCN(Cc4nc5ccccc(=O)c5[nH]4)C3=O)CC2)cc1 (stereo not shown) [Example 27, 2-((3-(4-(4-methoxybenzoyl)piperidin-1-yl)-2-oxopyrrolidin-1-yl)methyl)cyclohepta[d]imidazol-4(3H)-one] |  | 36 ± 3 nM | 0.4 ± 0.3 nM | 1.5 nM | 3.2 ± 0.1 nM |  |  | 
COc1ccc2c(c1)CC1(CCN([C@@H]3CCN(Cc4nc5c(c(=O)[nH]4)COCC5)C3=O)CC1)C2=O [Example 17] |  | 3850 ± 480 nM |  |  |  | 2000 ± 900 nM | 1790 ± 140 nM | 396 ± 10 nM
COc1ccc(C(=O)C2CCN(C3CCN(Cc4nc5sc(C)cc5c(=O)[nH]4)C3=O)CC2)cc1 (stereo not shown) [Example 8] | 141 ± 40 nM | 96 ± 28 nM | 18 ± 4 nM | 133 nM | 78 ± 13 nM |  |  | 
COc1ccc(C(=O)C2CCN(C3CCN(Cc4nc5ccsc5c(=O)[nH]4)C3=O)CC2)cc1 (stereo not shown) [Example 7] | 83 ± 5 nM | 211 ± 63 nM | 54 ± 12 nM | 1470 nM | 451 ± 68 nM |  |  | 
COc1ccc(C(=O)C2CCN(C3CCN(Cc4cccc(Cl)c4C#N)C3=O)CC2)cc1 (stereo not shown) [Example 1, 2-Chloro-6-{3-[4-(4-methoxy-benzoyl)-piperidin-1-yl]-2-oxo-pyrrolidin-1-ylmethyl}-benzonitrile] | 81 ± 1 nM | 162 ± 4 nM | 99 ± 11 nM | 408 nM | 239 ± 31 nM |  |  | 
COc1ccc(C(=O)C2CCN([C@H]3CCN(CC(=O)Nc4nnc5n4CCS5)C3=O)CC2)cc1 [Example 33] |  | 830 ± 20 nM |  |  |  | 1610 nM | 1340 ± 110 nM | 
COc1ccc(C(=O)C2CCN(C3CCN(CC(=O)Nc4nnnn4C)C3=O)CC2)cc1 (stereo not shown) [Example 36, 2-(3-(4-(4-methoxybenzoyl)piperidin-1-yl)-2-oxopyrrolidin-1-yl)-N-(1-methyl-1H-tetrazol-5-yl)acetamide] | 1480 ± 20 nM | 3080 ± 230 nM | 7600 ± 800 nM | > 10000 nM |  |  |  | 
COc1ccc(C(=O)C2CCN([C@H]3CCN(Cc4nc5ccccc(=O)c5[nH]4)C3=O)CC2)cc1 [Example 30, 2-{(S)-3-[4-(4-Methoxy-benzoyl)-piperidin-1-yl]-2-oxo-pyrrolidin-1-ylmethyl}-3H-cycloheptaimidazol-4-one] |  | 9.5 ± 0.7 nM | 1.1 ± 0.1 nM | 0.86 ± 0.1 nM | 0.6 ± 0.1 nM |  |  | 
COc1ccc(C(=O)C2CCN(C3CCN(CC(=O)Nc4nncc5c4CCCO5)C3=O)CC2)cc1 (stereo not shown) [Example 37, N-(3,4-dihydro-2H-pyrano[2,3-d]pyridazin-5-yl)-2-(3-(4-(4-methoxybenzoyl)piperidin-1-yl)-2-oxopyrrolidin-1-yl)acetamide] | 970 ± 60 nM | 3010 ± 60 nM | 396 ± 26 nM | 2230 nM |  |  |  | 
COc1ccc2c(c1)CC1(CCN(C3CCN(Cc4nc5c(c(=O)[nH]4)COCC5)C3=O)CC1)C2=O (stereo not shown) [Example 15, 2-((3-(5-methoxy-1-oxo-1,3-dihydrospiro[indene-2,4′-piperidine]-1′-yl)-2-oxopyrrolidin-1-yl)methyl)-7,8-dihydro-3H-pyrano[4,3-d]pyrimidin-4(5H)-one] |  | 33 ± 2 nM | < 0.5 nM | 43 nM | 16 ± 1 nM |  |  | 
